Data taken from publication PMC9067983, “Identification of highly selective type II kinase inhibitors with chiral peptidomimetic tails” (Journal of Enzyme Inhibition and Medicinal Chemistry, 2022).
pIC50: −log10 of the molar value. Where a SMILES comes first, the peptide text is derived from it. [ ]: non-standard residue; d: D form. The star is where a group is joined. X1 = Cc1ccc(Nc2ncc3c(n2)N(C)C(=O)N(c2cc(C(=O)*)ccc2C)C3)cn1; Chg = N[C@H](C(=O)O)C1CCCCC1; Pip = O=C(O)[C@@H]1CCCCN1; Aze = O=C(O)[C@@H]1CCN1; Ac3c = NC1(C(=O)O)CC1; Aib = CC(C)(N)C(=O)O

What was measured:
c-Src = target: T1, c-Src (Homo sapiens, UniProt P12931); experiment: In vitro kinase assay (IC50); format: biochemical
T1 construct: purchased Reaction Biology Corp
T1 sequence (P12931 whole entry): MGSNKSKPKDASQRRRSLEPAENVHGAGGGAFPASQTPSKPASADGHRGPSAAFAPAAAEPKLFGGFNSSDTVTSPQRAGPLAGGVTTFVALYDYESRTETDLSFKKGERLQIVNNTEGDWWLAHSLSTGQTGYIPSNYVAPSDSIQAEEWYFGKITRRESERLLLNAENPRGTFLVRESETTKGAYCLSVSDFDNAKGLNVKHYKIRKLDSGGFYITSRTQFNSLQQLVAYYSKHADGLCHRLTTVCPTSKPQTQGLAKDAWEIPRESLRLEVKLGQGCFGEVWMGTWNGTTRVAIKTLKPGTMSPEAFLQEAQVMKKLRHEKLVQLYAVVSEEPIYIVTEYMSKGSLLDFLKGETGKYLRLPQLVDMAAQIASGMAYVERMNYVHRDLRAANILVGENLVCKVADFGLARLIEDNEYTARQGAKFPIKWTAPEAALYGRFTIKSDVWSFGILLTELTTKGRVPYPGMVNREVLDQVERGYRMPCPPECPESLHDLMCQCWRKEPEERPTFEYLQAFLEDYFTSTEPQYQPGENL
Description: (§1) Full panel kinase profiling and kinase IC50 measurement were performed by using Reaction Biology Corp. (San Diego, USA).

Lck = target: T2, Lck (Homo sapiens, UniProt P06239); experiment: In vitro kinase assay (IC50); format: biochemical
T2 construct: purchased Reaction Biology Corp
T2 sequence (P06239 whole entry): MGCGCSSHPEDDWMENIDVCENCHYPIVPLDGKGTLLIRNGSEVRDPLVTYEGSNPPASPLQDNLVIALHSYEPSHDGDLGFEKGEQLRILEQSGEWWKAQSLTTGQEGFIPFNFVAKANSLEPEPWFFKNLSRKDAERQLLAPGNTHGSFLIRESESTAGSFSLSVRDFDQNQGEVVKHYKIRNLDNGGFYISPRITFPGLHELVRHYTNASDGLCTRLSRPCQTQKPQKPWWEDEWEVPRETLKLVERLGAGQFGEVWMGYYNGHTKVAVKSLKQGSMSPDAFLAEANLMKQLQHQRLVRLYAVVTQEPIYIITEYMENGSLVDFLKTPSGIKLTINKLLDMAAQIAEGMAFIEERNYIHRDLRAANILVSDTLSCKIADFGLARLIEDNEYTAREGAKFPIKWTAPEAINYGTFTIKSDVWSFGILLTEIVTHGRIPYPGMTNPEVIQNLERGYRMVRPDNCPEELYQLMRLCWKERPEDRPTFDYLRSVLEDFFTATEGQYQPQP
Description: as §1

Structure (SMILES)	pIC50 (c-Src)	pIC50 (Lck)	selectivity for Lck over c-Src (Lck) [fold]	decrease of Lck/c-Src selectivity compared to 7a (Lck) [fold]
Cc1ccc(Nc2ncc3c(n2)N(C)C(=O)N(c2cc(C(=O)N[C@H](C(=O)N4CCC[C@H]4C(=O)NC(C)(C)C(=O)N[C@@H](CC(C)C)C(=O)N(C)C)C4CCCCC4)ccc2C)C3)cn1 [7s, (S)-1-((S)-2-cyclohexyl-2-(4-methyl-3-(1-methyl-7-((6-methylpyridin-3-yl)amino)-2-oxo-1,4-dihydropyrimido[4,5-d]pyrimidin-3(2H)-yl)benzamido)acetyl)-N-(1-(((S)-1-(dimethylamino)-4-methyl-1-oxopentan-2-yl)amino)-2-methyl-1-oxopropan-2-yl)pyrrolidine-2-carboxamide] (X1-[Chg]P[Aib]L-NMe2)	6.36	7.44	> 10	
Cc1ccc(Nc2ncc3c(n2)N(C)C(=O)N(c2cc(NC(=O)c4ccc5c(c4)N(CC(=O)NCc4ccccc4)C(=O)[C@H](CC(C)C)N=C5c4ccccc4)ccc2C)C3)cn1 [11o, (S)-1-(2-(benzylamino)-2-oxoethyl)-3-isobutyl-N-(4-methyl-3-(1-methyl-7-((6-methylpyridin-3-yl)amino)-2-oxo-1,4-dihydropyrimido[4,5-d]pyrimidin-3(2H)-yl)phenyl)-2-oxo-5-phenyl-2,3-dihydro-1H-benzo[e][1,4]diazepine-8-carboxamide]	7.06	7.56		
Cc1ccc(Nc2ncc3c(n2)N(C)C(=O)N(c2cc(NC(=O)c4ccc5c(c4)N(C)C(=O)[C@H](CC(C)C)N=C5c4ccccc4)ccc2C)C3)cn1 [11h, (S)-3-isobutyl-1-methyl-N-(4-methyl-3-(1-methyl-7-((6-methylpyridin-3-yl)amino)-2-oxo-1,4-dihydropyrimido[4,5-d]pyrimidin-3(2H)-yl)phenyl)-2-oxo-5-phenyl-2,3-dihydro-1H-benzo[e][1,4]diazepine-8-carboxamide]	6.87	7.61		
Cc1ccc(Nc2ncc3c(n2)N(C)C(=O)N(c2cc(C(=O)N[C@H](C(=O)N4CCC[C@@H]4C(=O)NC(C)(C)C(=O)N[C@H](C(=O)N(C)C)C(C)C)C(C)C)ccc2C)C3)cn1 [7o, (R)-N-(1-(((S)-1-(dimethylamino)-3-methyl-1-oxobutan-2-yl)amino)-2-methyl-1-oxopropan-2-yl)-1-((4-methyl-3-(1-methyl-7-((6-methylpyridin-3-yl)amino)-2-oxo-1,4-dihydropyrimido[4,5-d]pyrimidin-3(2H)-yl)benzoyl)-L-valyl)pyrrolidine-2-carboxamide] (X1-V[dP][Aib]V-NMe2)	< 5.00	5.98		
C=CCN1C(=O)[C@H](CC(C)C)N=C(c2ccccc2)c2ccc(C(=O)Nc3ccc(C)c(N4Cc5cnc(Nc6ccc(C)nc6)nc5N(C)C4=O)c3)cc21 [11i, (S)-1-allyl-3-isobutyl-N-(4-methyl-3-(1-methyl-7-((6-methylpyridin-3-yl)amino)-2-oxo-1,4-dihydropyrimido[4,5-d]pyrimidin-3(2H)-yl)phenyl)-2-oxo-5-phenyl-2,3-dihydro-1H-benzo[e][1,4]diazepine-8-carboxamide]	6.65	7.31		

The next lines start with the values.

pIC50 (c-Src)	pIC50 (Lck)	selectivity for Lck over c-Src (Lck) [fold]	decrease of Lck/c-Src selectivity compared to 7a (Lck) [fold]	Structure (SMILES)
6.24	6.67			Cc1ccc(Nc2ncc3c(n2)N(C)C(=O)N(c2cc(C(=O)NCC(=O)N4CCC[C@H]4C(=O)NC(C)(C)C(=O)N[C@@H](CC(C)C)C(=O)N(C)C)ccc2C)C3)cn1 [7r, (S)-N-(1-(((S)-1-(dimethylamino)-4-methyl-1-oxopentan-2-yl)amino)-2-methyl-1-oxopropan-2-yl)-1-((4-methyl-3-(1-methyl-7-((6-methylpyridin-3-yl)amino)-2-oxo-1,4-dihydropyrimido[4,5-d]pyrimidin-3(2H)-yl)benzoyl)glycyl)pyrrolidine-2-carboxamide] (X1-GP[Aib]L-NMe2)
6.04	6.52		> 10	Cc1ccc(Nc2ncc3c(n2)N(C)C(=O)N(c2cc(C(=O)N[C@H](C(=O)N4CC[C@H]4C(=O)NC(C)(C)C(=O)N[C@@H](CC(C)C)C(=O)N(C)C)C(C)C)ccc2C)C3)cn1 [7k, (S)-N-(1-(((S)-1-(dimethylamino)-4-methyl-1-oxopentan-2-yl)amino)-2-methyl-1-oxopropan-2-yl)-1-((4-methyl-3-(1-methyl-7-((6-methylpyridin-3-yl)amino)-2-oxo-1,4-dihydropyrimido[4,5-d]pyrimidin-3(2H)-yl)benzoyl)-L-valyl)azetidine-2-carboxamide] (X1-V[Aze][Aib]L-NMe2)
6.26	7.31			Cc1ccc(Nc2ncc3c(n2)N(C)C(=O)N(c2cc(C(=O)N[C@H](C(=O)N4CCC[C@H]4C(=O)NC4(C(=O)N[C@@H](CC(C)C)C(=O)N(C)C)CC4)C(C)C)ccc2C)C3)cn1 [7d, (S)-N-(1-(((S)-1-(dimethylamino)-4-methyl-1-oxopentan-2-yl)carbamoyl)cyclopropyl)-1-((4-methyl-3-(1-methyl-7-((6-methylpyridin-3-yl)amino)-2-oxo-1,4-dihydropyrimido[4,5-d]pyrimidin-3(2H)-yl)benzoyl)-L-valyl)pyrrolidine-2-carboxamide] (X1-VP[Ac3c]L-NMe2)
6.23	6.89			Cc1ccc(Nc2ncc3c(n2)N(C)C(=O)N(c2cc(C(=O)N[C@@H](Cc4ccccc4)C(=O)N4CCC[C@@H]4C(=O)N[C@H](C(=O)N[C@H](C)c4ccccc4)C(C)C)ccc2C)C3)cn1 [7w, (R)-N-((S)-3-methyl-1-oxo-1-(((R)-1-phenylethyl)amino)butan-2-yl)-1-((4-methyl-3-(1-methyl-7-((6-methylpyridin-3-yl)amino)-2-oxo-1,4-dihydropyrimido[4,5-d]pyrimidin-3(2H)-yl)benzoyl)-L-phenylalanyl)pyrrolidine-2-carboxamide]
7.61	7.75			C=CCCC1=N[C@@H](CC(=O)Nc2ccc(C)c(N3Cc4cnc(Nc5ccc(C)nc5)nc4N(C)C3=O)c2)C(=O)N(Cc2ccccc2)c2ccccc21 [11q, (S)-2-(1-benzyl-5-(but-3-en-1-yl)-2-oxo-2,3-dihydro-1H-benzo[e][1,4]diazepin-3-yl)-N-(4-methyl-3-(1-methyl-7-((6-methylpyridin-3-yl)amino)-2-oxo-1,4-dihydropyrimido[4,5-d]pyrimidin-3(2H)-yl)phenyl)acetamide]
7.71	8.33			CC1=N[C@H](Cc2ccccc2)C(=O)Nc2cc(C(=O)Nc3ccc(C)c(N4Cc5cnc(Nc6ccc(C)nc6)nc5N(C)C4=O)c3)ccc21 [11l, (R)-3-benzyl-5-methyl-N-(4-methyl-3-(1-methyl-7-((6-methylpyridin-3-yl)amino)-2-oxo-1,4-dihydropyrimido[4,5-d]pyrimidin-3(2H)-yl)phenyl)-2-oxo-2,3-dihydro-1H-benzo[e][1,4]diazepine-8-carboxamide]
6.23	7.74			Cc1ccc(Nc2ncc3c(n2)N(C)C(=O)N(c2cc(C(=O)N[C@H](C(=O)N4CCCC[C@H]4C(=O)NC(C)(C)C(=O)N[C@@H](CC(C)C)C(=O)N(C)C)C(C)C)ccc2C)C3)cn1 [7j, (S)-N-(1-(((S)-1-(dimethylamino)-4-methyl-1-oxopentan-2-yl)amino)-2-methyl-1-oxopropan-2-yl)-1-((4-methyl-3-(1-methyl-7-((6-methylpyridin-3-yl)amino)-2-oxo-1,4-dihydropyrimido[4,5-d]pyrimidin-3(2H)-yl)benzoyl)-L-valyl)piperidine-2-carboxamide] (X1-V[Pip][Aib]L-NMe2)
